From patent US4812458A, “6,7-disubstituted-2,3-dihydroxyquinoxaline compounds, pharmaceutical compositions thereof, and their use as neuroleptics” (A/S Ferrosan, priority 1987, dated 1989)
In brackets after ≈: the same amount, converted by molar mass.

What was measured:
[1] = target: quisqualate type receptors (rat cerebral cortical membrane homogenate); experiment: 3H-AMPA binding (displacement of 3H-AMPA from the quisqualate type receptors); conditions: displacement of 50% of specific 3H-AMPA binding; 5 nM 3H-AMPA, 0° C., 30 min, pH 7.1
Method: (§1) The pharmacological properties of the compounds of the present invention can be illustrated by determining their capability for displacing radioactively labelled 2-amino-3-hydroxy-5-methyl-4-isoxazolepropionic acid (AMPA) from the quisqualate type receptors.
The displacement activity of the compounds may be shown by determining the IC50 value which represents the concentration (μg/ml) which causes a displacement of 50% of the specific binding of ^3 H-AMPA.
500 μl of thawed rat cerebal cortical membrane homogenate in Tris-HCl (30 mM), CaCl2 (2.5 mM) and KSCN ([…]) pH 7.1 were incubated at 0° C. for 30 min. with 25 μl ^3 H-AMPA (5 nM final concentration) and the test compound and buffer. Nonspecific binding was determined by incubation with L-glutamic acid (600 μM final concentration). The binding reaction was terminated by adding 5 ml of ice-cold buffer followed by filtration through Whatman GF/C glass fibre filters and 2×5 ml wash with ice-cold buffer. Bound radioactivity was measured by scintillation counting. IC50 was determined by Hill analysis of at least four concentrations of test compound.

[2] = system: quisqualic acid stimulated Na+-efflux from rat striatal slices; experiment: Antagonism of quisqualic acid induced 22Na+-release; assay type: cell-based; conditions: concentration reducing quisqualic acid (2 μg/ml) stimulated 22Na+ efflux rate by 50%
Method: as §1
The antagonism is measured by determining the EC50 value which represents the concentration which reduces the rate of quisqualic acid stimulated sodium efflux by 50%.
Antagonism of quisqualic acid induced ^22 Na^+ -release
Slices from rat striatum were preincubated with ^22 Na^+ for 30 min. After the ^22 Na^+ loading period, the slices were successively and every minute transferred through a series of tubes, each containing 1.5 ml of a non-radioactive physiological solution saturated with O2, with the help of a basket shaped sieve. Quisqualic acid (2 μg/ml) was present in the last 5 tubes and the compound to be tested was present in the same 5 tubes plus 3 tubes before. The amount of radioactivity in each washout tube as well as that left in the slices at the end of the experiment was measured by scintillation counting. EC50 -values were calculated by Hill analysis from at least three different concentrations of test compound as the concentration of test compound which reduces the efflux rate of ^22 Na^+ -ions to 50% of the efflux rate in the absence of test compound.

Structure (SMILES)	IC50 [1]	EC50 [2]
[N-]=[N+]=Nc1cc2nc(O)c(O)nc2cc1[N+](=O)[O-] [Example 3, 6-Azido-2,3-dihydroxy-7-nitroquinoxaline]	0.26 µg/mL (≈ 1.05 µM)	3 µg/mL (≈ 12.1 µM)
O=[N+]([O-])c1cc2nc(O)c(O)nc2cc1Cl [Example 7, 6-Chloro-2,3-dihydroxy-7-nitroquinoxaline]	0.43 µg/mL (≈ 1.78 µM)	3 µg/mL (≈ 12.4 µM)

Other lines, results leading:

IC50 [1]	EC50 [2]	Structure (SMILES)
0.06 µg/mL (≈ 0.258 µM)	0.7 µg/mL (≈ 3.02 µM)	N#Cc1cc2nc(O)c(O)nc2cc1[N+](=O)[O-] [Example 2, 6-Cyano-2,3-dihydroxy-7-nitroquinoxaline]
0.39 µg/mL (≈ 1.53 µM)		N#Cc1cc2nc(O)c(O)nc2cc1C(F)(F)F [Example 5, 6-Cyano-2,3-dihydroxy-7-trifluoromethylquinoxaline]
0.82 µg/mL (≈ 3.7 µM)		N#Cc1cc2nc(O)c(O)nc2cc1Cl [Example 8, 6-Chloro-7-cyano-2,3-dihydroxyquinoxaline]
